In patent US8642621B2, “(4-phenyl-piperidin-1-yl)-[5-(1H-pyrazol-4-yl)-thiophen-3-yl]-methanone compounds and their use” (The University Of Edinburgh, priority 2009, dated 2014):
Like-named read-outs stand apart in the source and are kept apart here.

Columns and labels:
[1] = In vitro human liver microsomal stability assay; type: in vitro ADME; details: human liver microsomes
Procedure: In Vitro Human Liver Microsomal Stability Assay
To predict in vivo metabolism of compounds, the stability of compounds incubated with human liver microsomes in vitro was determined. Human liver microsome preparations were stored at −80° C. and thawed on ice prior to use. The thawed microsomes were diluted to a concentration of 2 mg/mL in 50 mM sodium phosphate, pH 7.4. Reference and test compounds were prepared as 10 mM stocks in 100% DMSO and diluted to 1 mM in acetonitrile before use. Each compound was tested in triplicate as follows:
4 μL of test or reference compound was added to a well of a 24-well microplate and 0.5 mL of 4 mM NADPH added. The plate was then transferred to a shaker for 10 minutes at room temperature. 30 μL of the compound/NADPH solution was transferred to the well of a 96-well microplate and incubated at 37° C. for 5 minutes. 30 μL of human liver microsomes (pre-incubated at 37° C. for 5 minutes) was added to the well containing the compound/NADPH solution and the plate incubated for the selected period of time (typically 0 or 30 minutes). The reaction was stopped by adding 60 μL of ice cold […] trichloroacetic acid. The plate was centrifuged at 1000 rpm for 5 minutes at room temperature and the supernatant transferred to the well of a new 96-well v-bottomed microplate for mass spectrometric analysis.
Samples were analyzed by TSQ Quantum Discovery Tandem Mass Spectrometer and Surveyor Liquid Chromatogram (Thermo, Hemel-Hempstead, UK). 10 μL of each sample was injected in a mobile phase consisting of 60%:40% methanol:5 mM ammonium acetate at a flow rate of 0.5 mL/minute. The column used was a BDS hypersil, C18, 50×2.1 mm with a 5 μm particle size.
Each compound was tuned with a spray voltage of 3000 V and a capillary temperature of 300° C. and values for tube lens, CID and product ions were determined.
The peak area for each compound was measured in triplicate for the 0 and 30 minute samples and the average of each was reported. The percentage remaining after 30 minutes was calculated as the average peak area of the sample after 30 minutes divided by the average peak area at 0 minutes. The RSD was 10% or lower for each compound.

human 11β-HSD2 = target: T1, human 11β-HSD2 (Homo sapiens, UniProt P80365); test: Cellular in vitro 11β-HSD2 enzyme inhibition assay (CHO cells); type: cell-based; details: CHO cells stably transfected with human 11β-HSD2; Table 1
T1 construct: CHO cells stably transfected with the full-length gene coding for human 11β-HSD2 were used; expressed in transfected cells
T1 sequence (P80365 1-405): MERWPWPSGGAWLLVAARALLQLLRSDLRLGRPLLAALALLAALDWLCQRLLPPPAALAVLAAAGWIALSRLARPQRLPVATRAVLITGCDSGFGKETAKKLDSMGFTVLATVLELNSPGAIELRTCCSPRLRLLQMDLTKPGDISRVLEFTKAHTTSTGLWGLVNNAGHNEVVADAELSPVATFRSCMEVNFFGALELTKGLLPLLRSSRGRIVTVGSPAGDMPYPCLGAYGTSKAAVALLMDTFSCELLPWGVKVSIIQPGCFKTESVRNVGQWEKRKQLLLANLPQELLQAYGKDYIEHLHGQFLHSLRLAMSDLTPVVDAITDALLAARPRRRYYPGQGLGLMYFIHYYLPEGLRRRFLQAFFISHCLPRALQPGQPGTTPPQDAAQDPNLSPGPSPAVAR
Procedure: Cellular In Vitro 11β-HSD2 Enzyme Inhibition Assay
Assays were carried out in 96-well microplates containing 1×10^5 cells/well. Controls and compounds were plated as above, so that the final DMSO concentration in each well was 1%. To initiate the assay, 90 μL of a solution of HAMS F-12 medium containing 1% glutamine, 1% penicillin and streptomycin, and 22 nM tritiated cortisol was added to each well of the assay plate. The plate was then incubated in 5% CO2, 95% O2 at 37° C. for 16 hours.
The assay solutions were transferred to glass tubes and 20 μL ethyl acetate added to each tube. Each tube was vortexed thoroughly and the upper layer containing the tritiated steroid transferred to a fresh glass tube. The solvent was evaporated by placing the tubes in a heating block at 65° C. under a stream of Nitrogen gas. 20 μL ethanol was added to each of the dried samples and vortexed briefly. Each sample was applied to a silica TLC plate and the plate dried. The plate was placed vertically in a glass tank containing 92% chloroform:8% ethanol and the solvent allowed to rise up the plate. The plate was dried, placed in an imaging cassette, and overlayed with a tritium imaging plate for 1-2 days. The amount of enzyme inhibition in each sample was determined by measuring the intensity of the substrate and product spots using a phosphoimager.
IC50 values for inhibitors were determined as described for 11β-HSD1.

human 11β-HSD1 enzyme = target: T2, human 11β-HSD1 enzyme (Homo sapiens, UniProt P28845); test: Cellular in vitro 11β-HSD1 enzyme inhibition assay (SPA, HEK293/11β-HSD1 cells); type: cell-based; details: read-out: IC50 for 11β-HSD1 (HEK293)
T2 construct: stably transfected with a construct containing the full-length gene coding for the human 11β-HSD1 enzyme; expressed in transfected cells; HEK293/11β-HSD1 cells)
Procedure: Cellular In Vitro 11β-HSD1 Enzyme Inhibition Assay
Compounds were assessed by a Scintillation Proximity Assay (SPA) performed according to the following protocol:
HEK293 cells were stably transfected with a construct containing the full-length gene coding for the human 11β-HSD1 enzyme to create HEK293/11β-HSD1 cells. Cells were routinely cultured in DMEM containing 10% calf foetal serum, 1% glutamine, and 1% penicillin and streptomycin. Prior to assay, cells were plated at 2×10^4 cells/well in 96-well poly-D-Lys coated flat-bottomed microplates and incubated in 5% CO2, 95% O2 at 37° C. for 24 hours. The media in each well was removed immediately before assay.
Compounds to be tested were dissolved in DMSO at 10 mM and serially diluted into water containing 10% DMSO. Diluted compounds at a volume of 10 μL were added to wells of a 96-well V-bottomed microplate. A solution of DMEM, 1% glutamine, 1% penicillin and streptomycin, and 22 nM tritiated cortisone was prepared and 90 μL added to each well of the assay plate. This solution (100 μL/well) was transferred to the plate containing the cells. The plate was then incubated in 5% CO2, 95% O2 at 37° C. for 2 hours.
Following this incubation, 50 μL of the assay solution was transferred to each well of a 96-well scintillation microplate. A mixture consisting of anti-mouse YSi SPA beads, pre-mixed with anti-cortisol antibody in assay buffer (50 mM Tris.HCl, pH 7.0; 300 mM NaCl; 1 mM EDTA, 5% glycerol) was prepared and 50 μL added to each well of the scintillation microplate. An adhesive strip was applied to the microplate and the plate gently shaken for at least 2 hours at room temperature, and then spun briefly on a low speed centrifuge. The plate was read on a scintillation counter suitable for 96-well microplates. For the calculation of percentage inhibition, a series of wells were added to the plate that represented the assay maximum and the assay minimum: one set that contained substrate without cells (minimum) and another set that contained substrate and cells without any compound (maximum).
The calculation of median inhibitory concentration (IC50) values for the compounds was performed using GraphPad Prism® software. Dose-response curves for each compound were plotted as fractional inhibition and data fitted to the four parameter logistic equation.

Pharmacokinetics in rat = type: in vivo, male Sprague Dawley rats; details: male, Sprague Dawley, whole blood, intravenous 1 mg/kg and oral 10 mg/kg, read-out: % F (% Bioavailability)
Procedure: The pharmacokinetics of certain compounds were determined following intravenous (1 mg/kg) and oral (10 mg/kg) administration to male Sprague Dawley rats. Dosing solution was prepared by mixing each compound with 2% DMSO, 38% PEG-400 and 60% (0.9%) NaCl. Solutions were passed through 0.2 μm filters prior to administration.
Following dosing and at appropriate time points, blood samples were taken from a lateral tail vein and transferred into a tube pre-treated with EDTA. Blood samples were analysed for parent compound by LCMS and the quantity of parent compound remaining determined. Non-compartmental analysis was applied to the data using WinNonlin™ software to determine the pharmacokinetic parameters for each compound.

[2] = HEK293 cells stably transfected with human 11β-HSD1, Table 1

T2 sequence (P28845 whole entry): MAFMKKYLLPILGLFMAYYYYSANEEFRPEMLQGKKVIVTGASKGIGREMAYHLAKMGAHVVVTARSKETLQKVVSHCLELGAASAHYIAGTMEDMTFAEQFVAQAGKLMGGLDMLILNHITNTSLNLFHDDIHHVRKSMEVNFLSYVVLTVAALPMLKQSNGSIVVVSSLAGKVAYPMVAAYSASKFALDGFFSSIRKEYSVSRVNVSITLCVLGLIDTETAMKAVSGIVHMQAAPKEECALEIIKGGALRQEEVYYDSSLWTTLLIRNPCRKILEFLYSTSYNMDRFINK

% Parent Remaining at 30 min [1] | IC50 (human 11β-HSD2) [nM] | IC50 (human 11β-HSD1 enzyme; [2]) [nM] | IC50 (human 11β-HSD1 enzyme) [nM] | bioavailability (Pharmacokinetics in rat) [%] | SMILES
+++ (61-100% +++) | > 10000 | 38 | ≤ 500 |  | Cc1cccc(F)c1C1(O)CCN(C(=O)c2csc(-c3cn[nH]c3)c2)CC1 [AA-22]
+ (0-30% +) | > 10000 | 19 | ≤ 500 |  | COC1(c2ccccc2Cl)CCN(C(=O)c2csc(-c3cn[nH]c3)c2)CC1 [AA-33]
+ (0-30% +) | > 10000 | 42 | ≤ 500 |  | O=C(c1csc(-c2cn[nH]c2)c1)N1CCC(F)(c2ccccc2Cl)CC1 [AA-36]
++ (31-60% ++) | > 10000 | 35 | ≤ 500 |  | O=C(c1csc(-c2cn[nH]c2)c1)N1CCC(F)(c2cc(F)ccc2Cl)CC1 [AA-37]
+ (0-30% +) | > 10000 | 107 | ≤ 500 |  | COc1ccccc1C1CCN(C(=O)c2csc(-c3cn[nH]c3)c2)CC1 [BB-03]

Further lines, the compound ahead of its results:

SMILES | % Parent Remaining at 30 min [1] | IC50 (human 11β-HSD2) [nM] | IC50 (human 11β-HSD1 enzyme; [2]) [nM] | IC50 (human 11β-HSD1 enzyme) [nM] | bioavailability (Pharmacokinetics in rat) [%]
O=C(c1csc(-c2cn[nH]c2)c1)N1CCC(O)(c2ccccc2)CC1 [AA-01, (4-Hydroxy-4-phenyl-piperidin-1-yl)-[5-(1H-pyrazol-4-yl)-thiophen-3-yl]-methanone] | +++ (61-100% +++) | > 10000 | 208 | ≤ 500 | 31 to 100
O=C(c1csc(-c2cn[nH]c2)c1)N1CCC(O)(c2ccc(Cl)cc2)CC1 [AA-02] | +++ (61-100% +++) |  |  | ≤ 500 | 31 to 100
O=C(c1csc(-c2cn[nH]c2)c1)N1CCC(O)(c2ccccc2F)CC1 [AA-04] | +++ (61-100% +++) | > 10000 | 44 | ≤ 500 | 31 to 100
O=C(c1csc(-c2cn[nH]c2)c1)N1C2CCC1CC(O)(c1ccccc1)C2 (stereo not shown) [AA-06] | +++ (61-100% +++) | > 10000 | 21 | ≤ 500 | 11 to 30
O=C(c1csc(-c2cn[nH]c2)c1)N1CCC(O)(c2ccccc2Cl)CC1 [AA-08] | ++ (31-60% ++) | > 10000 | 10 | ≤ 500 | 31 to 100
O=C(c1csc(-c2cn[nH]c2)c1)N1CCC(F)(c2ccccc2)CC1 [AA-17] | +++ (61-100% +++) |  |  | 500 to 1000 | 31 to 100
O=C(c1csc(-c2cn[nH]c2)c1)N1CCC(F)(c2ccccc2F)CC1 [AA-18] | ++ (31-60% ++) | > 10000 | 104 | ≤ 500 | 
O=C(c1csc(-c2cn[nH]c2)c1)N1C2CCC1CC(O)(c1ccccc1Cl)C2 (stereo not shown) [AA-30] | ++ (31-60% ++) | > 10000 | 15 | ≤ 500 | 
O=C(c1csc(-c2cn[nH]c2)c1)N1C2CCC1CC(c1ccccc1)C2 (stereo not shown) [BB-08] | ++ (31-60% ++) | > 10000 | 114 | ≤ 500 | 
